{
  "source": "patent US20190263927A1",
  "about": "“COMBINATION OF A PD-1 ANTAGONIST AND ERIBULIN FOR TREATING UROTHELIAL CANCER” (Merck Sharp & Dohme Corp., priority 2016, published 2019)",
  "origin": "cited, not measured here",
  "test_system": "patients with metastatic UC (mUC)",
  "conditions": "eribulin monotherapy; patients with metastatic/advanced UC; NCI Protocol No. 7435",
  "data": [
    {"smiles": "C=C1C[C@@H]2CC[C@@]34C[C@H]5O[C@H]6[C@@H](O3)[C@H]3O[C@H](CC[C@@H]3O[C@H]6[C@H]5O4)CC(=O)C[C@@H]3[C@@H](OC)[C@@H](C[C@H](O)CN)O[C@H]3C[C@H]3O[C@@H](CC[C@@H]1O2)C[C@@H](C)C3=C", "note": "[Eribulin]", "values": [
      {"measurement": "clinical benefit for treatment of patients with mUC", "value": "provide clinical benefit"}
    ]}
  ]
}
